Measurements taken from patent US20120177681A1, “Formulation of immunopotentiators” (priority 2010, published 2012).
Read-outs that look alike come from different tables or passages of the source.

Experiments:
[1] = molecular target: T1, human TLR7 (Homo sapiens, UniProt Q9NYK1); assay: HEK293 human TLR7 NF-κB luciferase reporter assay; format: cell-based; conditions: HEK293 cells
T1 construct: expressed in transfected cells; host or cells: HEK293
T1 sequence (Q9NYK1 27-1049): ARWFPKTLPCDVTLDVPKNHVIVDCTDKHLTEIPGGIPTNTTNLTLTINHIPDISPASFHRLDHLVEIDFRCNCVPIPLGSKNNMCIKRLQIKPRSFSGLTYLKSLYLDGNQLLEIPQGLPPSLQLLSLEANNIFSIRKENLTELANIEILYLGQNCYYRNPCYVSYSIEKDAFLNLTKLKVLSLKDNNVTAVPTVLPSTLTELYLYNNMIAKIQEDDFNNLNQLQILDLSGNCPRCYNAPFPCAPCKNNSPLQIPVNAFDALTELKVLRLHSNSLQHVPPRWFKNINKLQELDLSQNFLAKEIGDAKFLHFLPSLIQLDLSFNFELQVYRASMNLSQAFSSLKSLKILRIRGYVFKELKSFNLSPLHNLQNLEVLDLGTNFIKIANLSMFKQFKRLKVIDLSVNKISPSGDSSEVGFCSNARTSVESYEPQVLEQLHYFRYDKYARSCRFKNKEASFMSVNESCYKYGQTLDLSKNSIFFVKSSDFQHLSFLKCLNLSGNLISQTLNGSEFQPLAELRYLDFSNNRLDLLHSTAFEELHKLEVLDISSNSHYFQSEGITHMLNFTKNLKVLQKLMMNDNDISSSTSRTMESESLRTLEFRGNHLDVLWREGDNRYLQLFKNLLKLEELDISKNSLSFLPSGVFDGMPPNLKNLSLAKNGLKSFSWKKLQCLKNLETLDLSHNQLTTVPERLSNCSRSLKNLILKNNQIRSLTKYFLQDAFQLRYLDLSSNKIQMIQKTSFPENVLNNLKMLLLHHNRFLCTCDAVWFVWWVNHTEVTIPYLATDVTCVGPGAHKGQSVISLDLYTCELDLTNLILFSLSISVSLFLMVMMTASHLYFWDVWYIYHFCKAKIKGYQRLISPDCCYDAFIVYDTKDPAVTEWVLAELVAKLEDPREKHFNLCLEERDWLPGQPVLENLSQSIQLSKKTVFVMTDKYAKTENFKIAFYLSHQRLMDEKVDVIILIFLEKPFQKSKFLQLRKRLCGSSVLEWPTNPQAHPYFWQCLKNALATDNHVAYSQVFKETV
Protocol: The activity of this compound is assessed in an assay using HEK293 cells which are stably transfected with human TLR7 and an NF-κB-driven luciferase reporter vector (pNifty-Luciferase). As a control assay, normal HEK293 transfected with pNifty-Luc are used. Cells are cultured in DMEM supplemented with 2 mM L-glutamine, 10% heart inactivated FBS, 1% penicillin and streptomycin, 2 μg/ml puromycin and 5 μg/ml of blasticidin. Bright-Glo™ Luciferase assay buffer and substrate are supplied by Promega. Cells are plated at 25,000 cells/well in 384-well plates in a final volume of 50 μl of media. Cells are allowed to adhere to the plates after overnight (18 hours) culture at 37° C. and 5% CO2. Serially-diluted experimental and positive control compounds are then dispensed to each well and incubated for 7 hours at 37° C. and 5% CO2. Cells stimulated with DMSO alone serve as negative controls. After the incubation, 30 μl of the pre-mix assay buffer and substrate buffer are added to each well according to manufacturer's instructions. The luminescence signal is read on a CLIPR machine with an integration time of 20 seconds per plate.

[2] = Systemic serum exposure after intramuscular injection; format: in vivo, Balb/C mice; conditions: Balb/C, mouse; for AUC: im, 100 μg i.m.; for Cmax: intramuscular, 100 μg
[3] = Muscle levels 24 hours after intramuscular injection; format: in vivo, Balb/C mice; conditions: for concentration at 24 h: Balb/C, mouse, muscle, intramuscular, 100 μg i.m.; for concentration at 24 h / detection in muscle 24 hours after intramuscular injection: 100 μg
[4] = Water solubility; format: physicochemical; conditions: read-out: water-soluble at
[5] = Model of in vivo desorption from Al—H; format: in vitro ADME; conditions: 37° C.
[6] = format: physicochemical; conditions: SDS-PAGE of supernatants
[7] = test system: serum cytokines; assay: Serum cytokines after administration; conditions: in vivo
[8] = Adsorption to aluminium hydroxide (Al—H), HPLC of supernatant; format: physicochemical; conditions: parent compound, in words
[9] = Confocal microscopy / flow cytometry of association with Al—H; format: physicochemical; conditions: in the presence of Al—H
[10] = Desorption from Al—H by phosphate / buffer anions; format: physicochemical; conditions: KH2PO4 0.5M final, pH 9, overnight at 37° C.
[11] = Solubility in histidine buffer at pH 6.8; format: physicochemical
[12] = test system: serogroup B meningococcus; format: in vivo, CD-1 mice; conditions: 5CVMB at days 0 & 14 with (b) the agonist compound
[13] = 100 ug, TLR2 agonists, compound alone
[14] = TLR2 agonists, +Al—H (adsorbed)
[15] = +Al—H (adsorbed), read-out: Levels of compound in muscle 24 hours after injection
[16] = SIF (simulated interstitial fluid)
[17] = 100 ug, compound alone, 24 hours

SMILES	EC50 [1] [µM]	Cmax ([2]; +Al—H (adsorbed)) [nM]	Cmax ([2]; compound alone) [nM]	concentration at 24 h [3, 15] [nM]	concentration at 24 h ([3]; compound alone) [nM]	solubility [4] [µg/mL]	detection in muscle 24 hours after intramuscular injection ([3]; injected with Al—H)	detection in muscle 24 hours after intramuscular injection ([3]; without Al—H (free form))	also measured
CCOCc1nc2c(N)nc3ccccc3c2n1CCOCCP(=O)(O)O [Compound 7]	66								
CCCCCCCCCCCCOC[C@H](CSC[C@H](N)C(=O)NCCOCCOCCOCCP(=O)(O)O)OCCCCCCCCCCCC [Compound 74, ((14R,18R)-14-amino-18-(dodecyloxy)-13-oxo-3,6,9,20-tetraoxa-16-thia-12-azadotriacontyl)phosphonic acid]		317	1940	49000	27800				AUC [2, 13]: 37.4 µM·h; AUC [2, 14]: 3.39 µM·h
Cc1cc(OCCOCCOCCC(F)(F)P(=O)(O)O)ccc1CCc1cnc2c(N)nc3cc(CCC(=O)O)ccc3c2c1 [Compound 4]						> 1000	readily detected	undetectable	proportion desorbed after 5 hours ([5]; His buff): 4%; proportion desorbed after 5 hours ([5]; Plasma/His buff): 81%; proportion desorbed after 5 hours [5, 16]: 100%; adsorption of MenB antigens to Al—H after pre-adsorption of compound [6]: completely adsorbed
CCCCCCCCCCCCOC[C@H](CSC[C@H](N)C(=O)NCCOCCOCCOCCP(=O)(O)O)NC(=O)CCCCCCCCCCC [Compound 80, ((14R,18R)-14-amino-18-dodecanamido-13-oxo-3,6,9,20-tetraoxa-16-thia-12-azadotriacontyl)phosphonic acid]		180	2820	47200	5070				AUC [2, 13]: 20.7 µM·h; AUC [2, 14]: 7.26 µM·h
CCOCc1nc2c(N)nc3ccccc3c2n1CCOCCOCCOCCP(=O)(O)O [Compound 68, (2-(2-(2-(2-(4-amino-2-(ethoxymethyl)-1H-imidazo[4,5-c]quinolin-1-yl)ethoxy)ethoxy)ethoxy)ethyl)phosphonic acid]	28	1720	2120	502	0	> 1000	readily detected	undetectable	AUC [2, 17]: 1.39 µM·h; AUC ([2]; +Al—H (adsorbed), 24 hours): 2.76 µM·h; effect of adsorption to Al—H on systemic cytokines [7]: generally reduced or unaffected
CCCCCCCCCCCC(=O)OC[C@H](CSC[C@H](N)C(=O)NCCOCCOCCOCCP(=O)(O)O)OC(=O)CCCCCCCCCCC [Compound 72, ((14R,18R)-14-amino-18-(dodecanoyloxy)-13,21-dioxo-3,6,9,20-tetraoxa-16-thia-12-azadotriacontyl)phosphonic acid]				14500	0				
Cc1ccc(CCc2cnc3c(N)nc4cc(C)ccc4c3c2)c(C)c1 [compound O]									adsorption to the Al—H adjuvant [8]: fails to adsorb; co-localisation with Al—H (flow cytometry) [9]: separate population
CCCCCNc1nc(N)nc(C)c1Cc1ccc(CP(=O)(O)O)cc1OC [Compound 8]	7.3								
Cc1ccc2c(c1)nc(N)c1ncc(CCc3ccc(OCCCP(=O)(O)O)cc3C)cc12 [Compound 13]									compound in supernatant after KH2PO4 treatment (displacement / desorption) [10]: Increased quantities; solubility in histidine buffer [11]: poorly soluble; proportion desorbed after 5 hours ([5]; His buff): 2%; proportion desorbed after 5 hours ([5]; Plasma/His buff): 9%; proportion desorbed after 5 hours [5, 16]: 4%
CCCCCNc1nc(N)nc(C)c1Cc1ccc(OCCOCCC(F)(F)P(=O)(O)O)cc1OC [Compound 71, (3-(2-(4-((2-amino-4-methyl-6-(pentylamino)pyrimidin-5-yl)methyl)-3-methoxyphenoxy)ethoxy)-1,1-difluoropropyl)phosphonic acid]	2.7	1810	2600	924	0	> 1000	readily detected	undetectable	AUC [2, 17]: 2.09 µM·h; AUC ([2]; +Al—H (adsorbed), 24 hours): 4.22 µM·h; effect of adsorption to Al—H on systemic cytokines [7]: generally reduced or unaffected; SBA titers at day 28 [12]: 65
CCCCCCCCCCCC(=O)OC[C@H](CSC[C@H](N)C(=O)NC1(COCCCP(=O)(O)O)CC1)OC(=O)CCCCCCCCCCC [Compound 22, (3-((1-((R)-2-amino-3-(((R)-2,3-bis(dodecanoyloxy)propyl)thio)propanamido)cyclopropyl)methoxy)propyl)phosphonic acid]				25300	0				
COCCOc1nc(N)c2nc(O)n(Cc3ccc(CP(=O)(O)O)cc3)c2n1 [Compound 6, (4-((6-amino-2-(2-methoxyethoxy)-8-oxo-7H-purin-9(8H)-yl)methyl)benzyl)phosphonic acid]	0.41	5520	6120	2770	0	> 1000		undetectable	AUC [2, 17]: 7.18 µM·h; AUC ([2]; +Al—H (adsorbed), 24 hours): 13.4 µM·h; detection in inguinal lymph nodes or in liver ([3]; after 24 hours): could not be detected
CCCCCNc1nc(N)nc(C)c1Cc1ccc(CP(=O)(O)O)cc1 [Compound 69]	47.4								
Cc1cc(OCCCC(F)(F)P(=O)(O)O)ccc1CCc1cnc2c(N)nc3cc(CCC(=O)O)ccc3c2c1 [Compound 3]						> 1000	readily detected	undetectable	proportion desorbed after 5 hours ([5]; His buff): 5%; proportion desorbed after 5 hours ([5]; Plasma/His buff): 49%; proportion desorbed after 5 hours [5, 16]: 100%; adsorption of MenB antigens to Al—H after pre-adsorption of compound [6]: completely adsorbed
COCCOc1cc2c(nc(O)n2Cc2ccc(CP(=O)(O)O)cc2)c(N)n1 [Compound 67, (4-((4-amino-6-(2-methoxyethoxy)-2-oxo-2,3-dihydro-1H-imidazo[4,5-c]pyridin-1-yl)methyl)benzyl)phosphonic acid]	6.5	4510	4060	2880	0	> 1000	readily detected	undetectable	AUC [2, 17]: 3.57 µM·h; AUC ([2]; +Al—H (adsorbed), 24 hours): 8.11 µM·h; effect of adsorption to Al—H on systemic cytokines [7]: generally reduced or unaffected; SBA titers at day 28 [12]: 64
